Laboratory results: patent US8946201B2, “Methods for inhibiting TGF-β” (Saint Louis University, priority 2007, dated 2015)

Assays:
[1] = tested on: PAI-1 expression; assay: TGF-β1-induced PAI-1 expression, Northern blot, Mv1Lu cells; assay type: cell-based, mink; conditions: for enhancement of PAI-1 expression: 1 μM, 16 hr
Protocol: (A, B, C, D, E, F) Cells were treated with 50 μg/ml cholesterol (A, B, C, D) and 50 μg/ml LDL (D) at 37° C. for 1 hr or with 1 μM fluvastatin or lovastatin (E) or several concentrations of fluvastatin (F) at 37° C. for 16 hr and then further incubated with increasing concentrations (as indicated) of TGF-β1 (A, B, C, E) or 50 pM TGF-β1 (D,F) for 2 hr. Northern blot analysis of PAI-1 and G3PDH was performed. A representative of a total of three analyses is shown (a). The relative intensities of the transcripts were quantified with a PhosphoImager. The ratio of the relative intensities of PAI-1 and G3PDH transcripts in cells treated without TGF-β1 and cholesterol, LDL or statins on the blot was taken as 1 fold or 100% of PAI-1 expression. The quantitative data from three independent analyses is shown (b). […] (G) Mv1Lu cells stably expressing a luciferase reporter gene driven by the PAI-1 promoter (MLECs-clone 32) were treated with increasing concentrations (as indicated) of cholesterol at 37 EC for 1 hr (a) or with 1 μM lovastatin at 37° C. for 16 hr (b) and then further incubated with 50 pM TGF-β for 7 hr. The luciferase activity in cells treated without cholesterol was taken as 100% (a). […] (H) Cells were incubated with 0.0625 and 0.125 pM TGF-β1 in the presence of increasing concentrations of cholesterol, as indicated. […] The experiments were carried out in triplicate.

[2] = tested on: TβR-I and TβR-II; assay: Lipid raft / non-lipid raft localization by sucrose density gradient ultracentrifugation, Mv1Lu cells; assay type: cell-based, mink; conditions: for plasma membrane microdomain localization of TβR-II (FIG. 5F): 1 μM statin 16 hr, nystatin 25 μg/ml or cholesterol 50 μg/ml 1 hr
Protocol: (A, B, C, D) Cells were treated with or without 50 μg/ml cholesterol (A,B,C,D) or several concentrations of cholesterol, as indicated in the presence and absence of 1% β-CD (E) at 37° C. for 1 hr and further incubated with (C,D) and without (A,B) 50 pM TGF-β1 for 1 hr. The cell lysates from these treated cells were subjected to sucrose density gradient ultracentrifugation. After ultracentrifugation, fractions were collected and analyzed by 7.5% SDS-PAGE followed by Western blot analysis using antibodies to TβR-I, TβR-II and caveolin-1. […] Fractions 4 and 5 represent fractions containing lipid rafts/caveolae whereas fractions 7 and 8 represent non-lipid raft fractions.
(F, G) Cells were treated with or without 1 μM lovastatin/fluvastatin or nystatin (25 μg/ml)/cholesterol (50 μg/ml) at 37° C. for 16 hr or 1 hr, respectively. The treated cells were directly analyzed by sucrose density gradient ultracentrifugation analysis (F) or further incubated with 50 pM TGF-β at 37° C. for several time periods as indicated (G). Western blot analysis of the sucrose density gradient fractions (F) and of TGF-β1-treated cell lysates (G) was performed using antibody to TβR-II. The relative levels of TβR-II and α-actin were quantified by densitometry. Fractions ⅘ and 7 represent lipid raft/caveolae and non-lipid raft fractions, respectively. The asterisk (*) indicates the increased level of TβR-II in the fraction (F). The ratio of the relative intensities of TβR-II and α-actin in cells treated without TGF-β1 was taken as 100% of the TβR-II level. A representative of a total of three independent analyses is shown (G, top). The quantitative data from three independent analyses is shown (G, bottom). The data bar represents the mean±S.D.
Mv1Lu, CHO-K1, or NRK cells were grown to near confluence in 100-mm dishes (5-10×10^6 per dish). Cells were incubated with cholesterol ([…]) at 37° C. for 1 hours and then incubated with TGF-β1 (100 pM) for 1 hr. After two washes with ice-cold phosphate-buffered saline, cells were scraped into 0.85 ml of 500 mM sodium carbonate, pH 11.0. Homogenization was carried out with 10 strokes of a tight-fitting Dounce homogenizer followed by three 20-s bursts of ultrasonic disintegrator, (Soniprep 150; Fisher Scientific) to disrupt cellular membranes as described previously (32). The homogenates were adjusted to 45% sucrose by addition of 0.85 ml of 90% sucrose in 25 mM 2-(N-morpholino) ethanesulfonic acid, pH 6.5, 0.15 M NaCl (MBS), and placed at the bottom of an ultracentrifuge tube. […] Ten 0.5-ml fractions were collected from the top of the tubes, and a portion of each fraction was analyzed by SDS-PAGE followed by Western blot analysis using antibodies to TβR-I and TβR-II and caveolin-1. […]

| SMILES | suppression of TGF-β1-stimulated PAI-1 expression ([1]; 50 μg/ml, TGF-β1 2 to 100 pM, Mv1Lu cells) | plasma membrane microdomain localization of TβR-II (FIG. 5F) [2] | localization of TβR-I and TβR-II in plasma membrane fractions ([2]; 50 μg/ml, 1 hr, fractions 4 and 5) | enhancement of PAI-1 expression ([1]; 10 pM TGF-β1, Mv1Lu cells) | enhancement of PAI-1 expression ([1]; 50 pM TGF-β1, Mv1Lu cells) [fold] | effect on the LDL and cholesterol suppression of PAI-1 expression ([1]; 25 μg/ml nystatin present, data not shown) |
| --- | --- | --- | --- | --- | --- | --- |
| CC(C)CCC[C@@H](C)[C@H]1CC[C@H]2[C@@H]3CC=C4C[C@@H](O)CC[C@]4(C)[C@H]3CC[C@]12C [cholesterol] | 65-70% | increased the localization of TβR-II in lipid rafts/caveolae | enriched in the lipid raft/caveolae fractions |  |  |  |
| CC[C@H](C)C(=O)O[C@H]1C[C@@H](C)C=C2C=C[C@H](C)[C@H](CC[C@@H]3C[C@@H](O)CC(=O)O3)[C@H]21 [lovastatin, reference compound] |  | increased the localization of TβR-II in non-lipid raft microdomains |  | did not enhance | 3 |  |
| C[C@@H]1[C@H](O)[C@@H](C)/C=C/C=C/CC/C=C/C=C/C=C/C=C/C(O[C@H]2O[C@H](C)[C@@H](O)[C@H](N)[C@@H]2O)CC2O[C@](O)(CC(O)C(O)CCC(O)CC(O)CC(O)CC(=O)O[C@H]1C)CC(O)C2C(=O)O (some centres unmarked) [nystatin, reference compound] |  | increased the localization of TβR-II in non-lipid raft microdomains |  |  |  | abolished |
